Structures can show the parent of a compound that is named as a salt.
Tests used:
[1] = system: alloreactive Tc cells; conditions: dosages between 10 ng/ml and 100 ug/ml; WO85/05031; cited from earlier work
[2] = system: PAM 212 cells; experiment: Cell growth inhibition assay (surfactants, 3-4 days, Coulter counter), PAM 212; format: cell-based, mouse; conditions: PAM212; PAM 212 mouse keratinocyte-derived tumor cells; 3-4 days; read-out: IC50 (uM conc. inhibiting growth of the cells by 50%)
Method: (§1) Established cell lines are the system of choice for the prescreening of unknown compounds for antineoplastic activity. The tumor cell line screen works on the following principle. Cancer cells, if provided with enough nutrients, will grow unchecked in vitro, allowing researchers to grow many types of cancer cells outside the body. To perform an assay, standard amounts of the various cancer cells are placed in individual wells of a microtiter plate, and incubated with the potential antineoplastic compound of interest, for a sufficient period of time to allow for at least a 6-fold control growth, generally 1 to 5 days depending on cell origin. At the end of the incubation period, the cell lines are stained and assayed by a variety of means including, for example, proteins stains or a colorimeter for normal growth, growth inhibition or cytotoxicity. These assays measure a compound's ability to inhibit cell growth and a positive response of the compounds in these assays would be indicative of the therapeutic potential of these compounds. See, for example, the protocols and data presented in Laskin et al., (1979) Cancer Res 39:383-390 for 5-fluorouracil in mouse and human cells in culture.
(§2) A total of ten cell lines were used to evaluate the growth inhibitory potency of the various surfactants. In these studies, human, rat, mouse and bovine cells were used. A spectrum of different tumor cell types were used including those derived from keratinocytes (PAM 212), leukemias (HL-60, U-937 and K-562), an epitheloid carcinoma (HeLa) and melanoma (B-16). The B16 melanoma was used since this is a common cell type used to evaluate antimetastatic activity of test compounds. The effect of the surfactants on three fibroblast cell lines (C3H 10T1/2, NIH 3T3 and R6) were also evaluated for comparison to the tumor cell lines. The activity of the surfactants was also evaluated using pulmonary aortic endothelial cells for effectiveness as antiangiogenic agents.
(§3) PAM 212 cells are a mouse keratinocyte-derived tumor cell line. U-937 cells are a human histiocytic tumor cell line. HeLa cells are an epitheloid tumor cell line. Three murine fibroblast cells lines tested included the mouse fibroblast cell line, C3H 10T1/2, the rat fibroblast cell line R6, and the NIH 3T3 mouse fibroblast cell line. The human leukemia cell line HL-60 and the mouse melanoma B-16 cell were also tested. K-562 cells were from the American Type Culture Collection. All cells were grown in Dulbecco's modified Eagle's medium in a 37° C. incubator in an atmosphere of 5% CO2.
(§4) For growth inhibition assays, cells were seeded at low density (2.5×10^4 cells in 0.5 ml of culture medium) into 24-well tissue culture plates (Falcon Labware, Lincoln Park, N.J.). After 24 hours at 37° C., increasing concentrations (1 to 100 uM) of the surfactants were added to the cells in the culture plate. Control cultures were incubated in the absence of any surfactant. The cells were then incubated for 3-4 days to allow for growth. Cells from individual wells in the culture plate were then removed and duplicate samples taken for counting using a Coulter counter. To remove adherent cells the plates were treated with 0.25% trypsin/0.2% EDTA (GIBCO, Grand Island, N.Y.).

[3] = system: C3H 10T1/2 cells; experiment: Cell growth inhibition assay, C3H 10T1/2; format: cell-based, mouse; conditions: C3H 10T1/2 mouse fibroblasts; 3-4 days; read-out: IC50 (uM conc. inhibiting growth of the cells by 50%)
Method: as §1, §2, §3, §4

[4] = system: HL-60 cells; experiment: Cell growth inhibition assay, HL-60; format: cell-based, human
Method: as §1, §2, §3, §4

[5] = system: NIH 3T3 cells; experiment: Cell growth inhibition assay, NIH 3T3; format: cell-based, mouse; conditions: NIH3T3; NIH 3T3 mouse fibroblasts; 3-4 days; read-out: IC50 (uM conc. inhibiting growth of the cells by 50%)
Method: as §1, §2, §3, §4

[6] = system: K-562 cells; experiment: Cell growth inhibition assay, K-562; format: cell-based; conditions: Homo sapiens, K562; K-562 leukemia cells; 3-4 days; read-out: IC50 (uM conc. inhibiting growth of the cells by 50%)
Method: as §1, §2, §3, §4

[7] = system: B-16 cells; experiment: Cell growth inhibition assay, B-16 melanoma; format: cell-based, mouse; conditions: B16; B-16 mouse melanoma cells; 3-4 days; read-out: IC50 (uM conc. inhibiting growth of the cells by 50%)
Method: as §1, §2, §3, §4

[8] = system: R6 cells; experiment: Cell growth inhibition assay, R6; format: cell-based, rat; conditions: Fibroblast; R6 rat fibroblasts; 3-4 days; read-out: IC50 (uM conc. inhibiting growth of the cells by 50%)
Method: as §1, §2, §3, §4

[9] = system: CPA-5 cells; experiment: Cell growth inhibition assay, CPA-5 endothelial cells; format: cell-based, bovine; conditions: Bos taurus, CPA-5 bovine aortic endothelial cells, 3-4 days, read-out: IC50 (uM conc. inhibiting growth of the cells by 50%)
Source text: as §2, §3, §4
The compounds were tested as inhibitors of growth in the bovine aortic endothelial cell line CPA-5 as taught in Example 2 in order to evaluate the possibility that they may be anti-angiogenesis agents. A hallmark of angiogenesis is the outgrowth of endothelial cells which are required in the formation of new blood vessels. This process is a critical factor in the vascularization of tumors. Inhibition of neovascularization limits the growth of tumors and would be an effective means of treating cancer. FIG. 3 illustrates that three of the compounds, 8-3S, 12-5B and 12-1B, had no activity against the CPA-5 cell line in the concentration range tested (IC50 =>100 uM), while only relatively high concentrations of 12-3S (IC50 =70 uM) were effective in inhibiting the growth of CPA-5 cells. As indicated above, with several exceptions, these compounds were also not very effective in inhibiting the growth of each of the other cell types.

[10] = Critical micelle concentration (cmc); format: physicochemical
Source text: "Critical micelle concentration" or "cmc" refers to the point at which micelle formation begins.

[11] = system: ten cell lines; experiment: Cell growth inhibition assays, panel of cell lines; format: cell-based, human, rat, mouse and bovine
Source text: as §2, §3, §4

[12] = system: HeLa cells, DNA synthesis; experiment: DNA synthesis in HeLa cells (3H-thymidine); format: cell-based
Method: (§5) The 16-5B compound was evaluated further using HeLa cells to gain some insight into the mechanism of action of this group of compounds. In these studies, the ability of this compound to inhibit macromolecular synthesis in the cells was examined. The effects of 16-5B on DNA, RNA and protein synthesis was monitored using labeled thymidine, uridine or leucine, respectively. These precursors readily incorporate into the appropriate cellular macromolecules in the cells.
(§6) For assays of macromolecular biosynthesis in HeLa cells, cells were seeded into 60 mm culture dishes (Falcon Labware, Lincoln Park, N.J.) at a density 1×10^5 /ml in 5 mls of cell culture medium. Cells were allowed to grow at 37° C. for 48 hours before use. Culture plates were then removed from the incubator and washed with phosphate buffered saline. The cells were then incubated with increasing concentrations of the 16-5B in 2 ml of serum-free Dulbecco's modified Eagle's medium supplemented with 0.075% sodium bicarbonate. Control cultures were incubated in cell culture medium without surfactant. […] Two 0.5 ml aliquots were neutralized and counted for radioactivity using a scintillation counter.

[13] = system: HeLa cells, RNA synthesis; experiment: RNA synthesis in HeLa cells (3H-uridine); format: cell-based; conditions: Homo sapiens, FIG. 2, 2 hours 3H-uridine, read-out: IC50 for uridine uptake (RNA synthesis)
Method: as §5, §6

[14] = system: HeLa cells, protein synthesis; experiment: Protein synthesis in HeLa cells (3H-leucine); format: cell-based; conditions: Homo sapiens, FIG. 2, 4 hours 3H-leucine, read-out: IC50 for leucine uptake (protein synthesis)
Method: as §5, §6

Row | Compound | immunosuppressive on alloreactive Tc cells [1] | IC50 [2] | IC50 [3] | IC50 ([4]; HL-60 human leukemia cells, 3-4 days, read-out: IC50 (uM conc. inhibiting growth of the cells by 50%)) | fold greater sensitivity of HL-60 among the leukemia cells ([4]; HL-60 versus other leukemia cells) | IC50 [5] | IC50 [6] | IC50 [7] | IC50 [8] | IC50 [9] | cmc [10] | fold concentration required to inhibit K-562 and U-937 growth relative to HL-60 ([11]; K-562 and U-937 versus HL-60) | fold concentration range spanned by the IC50's ([11]; across cell lines) | IC50 ([11]; all / all other cell lines tested, read-out: IC50 over the cell lines tested (range or bound)) | activity against all of the cell lines tested ([11]; growth inhibition) | selective inhibition of macromolecular synthesis ([12]; DNA, RNA and protein synthesis compared) | IC50 ([12]; Homo sapiens, FIG. 2, 1 hour 3H-thymidine, read-out: IC50 for thymidine uptake (DNA synthesis)) | IC50 [13] | IC50 [14]
1 | CCCCCCCCCCCC[N+](C)(C)CCCCCCCCCCCC.[Br-] [didodecyl dimethyl ammonium bromide] | immunosuppressive on alloreactive Tc cells | – | – | – | – | – | – | – | – | – | – | – | – | – | – | – | – | – | –
2 | CCCCCCCCCCCCCCCC[N+](C)(C)CCCCCC(=O)[O-] [16-5B, N-(5-carboxypentyl)-N,N-dimethyl-1-hexadecanaminium hydroxide inner salt] | – | 6 µM | 53 µM | 0.5 µM | 10 to 100 fold | 24 µM | 5.5 µM | 20 µM | 18 µM | 18 µM | 10 µM | approximately ten | 100 fold | 0.5 to 53 µM | considerable activity against all of the cell lines tested | does not appear to selectively inhibit any of these processes | 30 µM | 30 µM | 30 µM
